Earlier results, collected in US8829054B1, “Ready-to-use co-solvents pharmaceutical composition in modified flexible plastic container” (Welgrace Research Group, priority 2013, dated 2014).

Conditions: published literature, Rosenberg et al. 1988

activation energies for Esmolol decompositions: 19 to 21.5 kcal/mol
SMILES: COC(=O)CCc1ccc(OCC(O)CNC(C)C)cc1.Cl (stereo not shown) [Esmolol, methyl3-[4-[2-hydroxy-3-(isopropylamino)propoxy]phenyl]propionate hydrochloride]
